Measured values taken from the NIST ThermoML archive (doi:10.1016/j.tca.2016.12.008).
Several values for one entry are separate records, joined by “and”; a condition that tells them apart may be missing. Equal values may be shown once. Numbers after ± are expanded uncertainties.

Assays:
[1] = for Normal melting temperature: DTA
[2] = Molar enthalpy of transition or fusion; settings: Crystal; DSC

Row | mass density ([1]; 293 K, 101.33 kPa, Crystal, X-ray diffraction) [kg/m3] | Normal melting temperature ([1]; Crystal) | Glass transition temperature ([1]; Glass, DSC) [°C] | Molar enthalpy of transition or fusion [2] [kcal/mol] | Normal melting temperature ([1]; Crystal 1) [°C] | Triple point temperature ([1]; Crystal 2, DSC) [K] | SMILES
1 | 1173 ± 6 | 156.20 ± 0.9 °C and 155.50 ± 0.5 °C | 25.00 ± 2 | 6.81 ± 0.191 | – | – | CC(C)(C)C(=O)Oc1ccc2ccccc2c1-c1c(OC(=O)C(C)(C)C)ccc2ccccc12
2 | – | 215.40 ± 0.5 °C | – | 7.46 ± 0.215 | – | – | Oc1ccc2ccccc2c1-c1c(O)ccc2ccccc12 [(1,1'-binaphthalene)-2,2'-diol]
3 | – | – | – | – | 123.80 ± 0.5 | 389.55 ± 1.3 | CC(C)(C)C(=O)Oc1ccc2ccccc2c1-c1c(OC(=O)C(C)(C)C)ccc2ccccc12 [(1,1'-binaphthalene)-2,2'-diyl bis(2,2-dimethylpropanoate)]
4 | – | 209.20 ± 0.5 °C and 208.00 ± 0.5 °C | – | 7.39 ± 0.167 | – | – | Oc1ccc2ccccc2c1-c1c(O)ccc2ccccc12 [(S)-(1,1'-binaphthalene)-2,2'-diol]
